According to patent publication US20130296391A1, “PLANT DISEASE CONTROLLING COMPOSITION AND METHOD FOR CONTROLLING PLANT DISEASE” (SUMITOMO CHEMICAL COMPANY, LIMITED, priority 2010, published 2013):

System: gray mold fungus (Botrytis cinerea)
Test: cucumber leaf disk test against gray mold fungus, preventive value
Format: in vivo
Details: single compound, 15° C., four days
Description: True leaf of cucumber was punched out with cork borer to 13 mm in diameter to prepare a leaf disk. In 24 well microwell plate that was dispensed with 1 ml 0:8% water agar, the leaf disk was placed such that the upper side of the leaf was in an upward direction. Thereto was added 20 micro liter a testing solution prepared by mixing a dimethyl sulfoxide solution of the present amide compound and a dimethyl sulfoxide solution of benomyl or carbendazim to a predetermined concentration to treat the leaf disk.
After confirming that the testing medical solution was dried, conidium of gray mold fungus (Botrytis cinerea) was suspended into potato dextrose broth (DIFCO) in a density of about 10^5 conidia/mL and was then subjected to a spray inoculation. After leaving to stand the leaf disk in a growth chamber set up at 15° C. for four days, an onset area on each leaf was measured and then calculated an onset area rate (hereinafter, referred to as an onset area rate belonging to treated group).
The same operation was carried out with 20 micro liter water instead of 20 micro liter the testing medicine solution to calculate an onset area rate (hereinafter, referred to an onset area rate belonging to non-treated group).
A preventive value was calculated from the above onset area rate belonging to treated group and the onset area rate belonging to non-treated group by the following equation:
Preventive value(%)=100×(A−B)/A
A: an onset area rate belonging to non-treated group
B: an onset area rate belonging to treated group
onset area rate=(onset area of the leaf disk)/(the total area of the leaf disk)
For comparison, the same operations as described in Test Examples 1 to 4 were carried out except that the testing medicine solution was substituted with predetermined concentration of a dimethyl sulfoxide solution of benomyl or carbendazim, so as to calculate a preventive value.

[1] = treatment concentration 0.5 ppm
[2] = treatment concentration 5.0 ppm

SMILES | preventive value (%) (treatment concentration 1.0 ppm) | preventive value (%) (treatment concentration 2.5 ppm) | preventive value (%) [1] | preventive value (%) [2]
CNC(=O)C(OC)c1ccccc1COc1cc(C)ccc1C (stereo not drawn) [the present amide compound] | 46% | 55.5% |  | 
CCCCNC(=O)n1c(NC(=O)OC)nc2ccccc21 [benomyl] |  |  | 47.5% | 56.5%
COC(=O)Nc1nc2ccccc2[nH]1 [carbendazim] |  |  | 45% | 55.5%
